Results reported in patent US20230020329A1, “Annelated 9-hydroxy-1,8-dioxo-1,3,4,8-tetrahydro-2H-pyrido[1,2-a]pyrazine-7-carboxamides as HIV integrase inhibitors, methods of preparation and application thereof” (priority 2019, published 2023).

system: HIV-1 (IIIB strain); experiment: Anti-HIV cytoprotection assay (XTT), HIV-1 IIIB in CEM-SS cells; format: cell-based; conditions: Human immunodeficiency virus 1, IIIB, CEM-SS, CEM-SS cell line; read-out: Inhibitory activity (EC50) against HIV-1 (IIIB strain)
From the text: a) Inhibitory Activity of the Lymphocytropic Virus Strain HIV-1 (IIIB) in the CEM-SS Cell Line.
The evaluation was done by ImQuest BioSciences, Inc. (Frederick, Md., USA). CEM-SS cells [Foley G. E. et al. Continuous Culture of Human Lymphoblasts from Peripheral Blood of a Child with Acute Leukemia. Cancer 1965, 18, 522-529] obtained through the NIH AIDS Research and Reference Reagent Program (Manassas, Va., USA) were passaged in T-75 flasks prior to use cell culture medium consisting of RPMI1640 medium (Lonza; Walkersville, Md., USA) supplemented with 10% heat inactivated fetal bovine serum (Gibco; Grand Island, N.Y.), […] L-glutamine (Lonza), […] penicillin (Lonza) and […] streptomycin (Lonza) for antiviral analysis. The CEM-SS cells were kept in RPMI 140 medium supplemented with 10% heat inactivated bovine fetal serum, 2 mM glutamine, 100 U/ml penicillin, and 100 μg/ml streptomycin.
A lymphocytropic HIV-1 IIIB strain [Popovic, M. et al. Detection, isolation, and continuous production of cytopathic retroviruses (HTLV-III) from patients with AIDS and pre-AIDS. Science. 1984, 224 (4648), 497-500] was chosen for a virus to be analyzed. The virus was obtained through the NIH AIDS Research and Reference Reagents Program and grown in CEM-SS cells to produce a stock virus pool. A pre-titrated aliquot of the virus was removed from the freezer (−80° C.) and allowed to slowly thaw to room temperature in a biological safety cabinet. The virus was diluted in a tissue culture medium so that the amount of virus added in 50 μl per well was sufficient to kill 85 to 95% of the cells 6 days after infection. HIV-1 IIIB was grown and titrated in CEM-SS cells. The inhibitory effect of […] was evaluated in CEM-SS cells as described earlier [Nara, P. L. at al. Simple, rapid, quantitative, syncytium-forming microassay for the detection of human immunodeficiency virus neutralizing antibody. AIDS Res. Hum. Retroviruses 1987, 3, 283-302.] in microtiter plate anti-HIV assays to quantitatively assess the ability of a compound to inhibit HIV-induced cell death. Quantification was carried out using 2,3-bis-(2-methoxy-4-nitro-5-[…])-(2H)-tetrazolium-5-carboxanilide (XTT) tetrazolium, which is metabolized to a stained formazan product through viable […] The compounds given in Table 1 were dissolved at 10 μM in DMSO and stored at −20° C.
Test materials were evaluated using antiviral assays in triplicate in concentrations of 30 and 10 nM. The compounds shown in table 1 were dissolved at 10 μM in DMSO and stored at −20° C. […] Sixty nanomolar concentrations of each compound (2 times that of the test concentration in the well) were prepared by diluting 10 μM DMSO stock 1:100 in cell culture medium (10 μl of compound added to 990 μl of the medium) followed by 1:10 dilution (10 μl of the compound was added to 90 μl of the medium), then 6 μl was added to 994 μl of the medium; […] μl was added to a 96-well microtiter plate in triplicate to ensure efficacy and one colorimetric well. Twenty nanomolar concentrations of each compound (twice as much as the test concentration in the well) were prepared by diluting 10 μM DMSO with the original 1:100 in cell culture medium (10 μl of the compound added to 990 μl of the medium) followed by diluting […] (10 μl of the compound was added to 900 μl of the medium), then 20 μl was added to 980 μl of the medium; 100 μl was added to a 96-well microtiter plate in triplicate to ensure efficacy and one colorimetric well.
Azidothymidine (AZT) was purchased from Sigma Aldrich (USA) and evaluated as a positive control compound in an antiviral assay using a six-concentration reaction curve on each assay plate.
Test compounds were initially evaluated for HIV-1 IIIB strain in CEM-SS cells at test concentrations of 30 and 10 nM. […]

Compared with `C[C@H]1CO[C@@H]2Cn3cc(C(=O)NCc4n[nH]c5c4CCCCC5)c(=O)c(O)c3C(=O)N12` [Compound 1.1.62, (3S,11aR)-6-hydroxy-N-(1,4,5,6,7,8-hexahydrocyclohepta[c]pyrazol-3-ylmethyl)-3-methyl-5,7-dioxo-2,3,5,7,11,11a-hexahydro[1,3]oxazolo[3,2-a]pyrido[1,2-d]pyrazine-8-carboxamide], `C[C@H]1CO[C@@H]2Cn3cc(C(=O)NCc4nc5c(s4)CCCCC5)c(=O)c(O)c3C(=O)N12` [Compound 1.1.63, (3S,11aR)-6-hydroxy-3-methyl-5,7-dioxo-N-(5,6,7,8-tetrahydro-4H-cyclohepta[d][1,3]thiazol-2-ylmethyl)-2,3,5,7,11,11a-hexahydro[1,3]oxazolo[3,2-a]pyrido[1,2-d]pyrazine-8-carboxamide] is higher in EC50: 2 to 10 nM for the first, > 30 nM for the second.

First: C[C@H]1CO[C@@H]2Cn3cc(C(=O)NCc4ccccn4)c(=O)c(O)c3C(=O)N12 [Compound 1.1.15, (3S,11aR)-6-hydroxy-3-methyl-N-(pyridyl-2-ylmethyl)-5,7-dioxo-2,3,5,7,11,11a-hexahydro[1,3]oxazolo[3,2-a]pyrido[1,2-d]pyrazine-8-carboxamide]
Second: C[C@H]1CO[C@@H]2Cn3cc(C(=O)NCc4cn5cccnc5n4)c(=O)c(O)c3C(=O)N12 [Compound 1.1.58, (3S,11aR)-6-hydroxy-N-(imidazo[1,2-a]pyrimidin-2-ylmethyl)-3-methyl-5,7-dioxo-2,3,5,7,11,11a-hexahydro[1,3]oxazolo[3,2-a]pyrido[1,2-d]pyrazine-8-carboxamide]
The EC50 of the first is lower: 10 to 30 nM for the first, > 30 nM for the second. The first is the more potent here.

First: O=C(NCc1c(F)cncc1F)c1cn2c(c(O)c1=O)C(=O)N1[C@H]3CC[C@H](C3)O[C@@H]1C2 [Compound 1.3.3, (2R,5S,13aR)-8-hydroxy-N-[(3,5-difluoropyridin-4-yl)methyl]-7,9-dioxo-2,3,4,5,7,9,13,13a-octahydro-2,5-methanopyrido[1′,2′:4,5]pyrazino[2,1-b][1,3]oxazepine-10-carboxamide]
Second: C[C@H]1CO[C@@H]2Cn3cc(C(=O)NCc4ccc(Cl)nc4)c(=O)c(O)c3C(=O)N12 [Compound 1.1.18, (3S,11aR)-6-hydroxy-N-[(6-chloropyridin-3-yl)methyl]-3-methyl-5,7-dioxo-2,3,5,7,11,11a-hexahydro[1,3]oxazolo[3,2-a]pyrido[1,2-d]pyrazine-8-carboxamide]
The EC50 of the first is lower: 2 to 10 nM for the first, 10 to 30 nM for the second. The first is the more potent here.

`Cc1nn(C)c(C)c1CNC(=O)c1cn2c(c(O)c1=O)C(=O)N1[C@@H](C)CO[C@@H]1C2` [Compound 1.1.5, (3S,11aR)-6-hydroxy-3-methyl-N-[(1,3,5-trimethyl-1H-pyrazol-4-yl)methyl]-5,7-dioxo-2,3,5,7,11,11a-hexahydro[1,3]oxazolo[3,2-a]pyrido[1,2-d]pyrazine-8-carboxamide] and `CCn1nc(C)c(CNC(=O)c2cn3c(c(O)c2=O)C(=O)N2[C@@H](C)CO[C@@H]2C3)c1C` [Compound 1.1.6, (3S,11aR)-6-hydroxy-N-[(1-ethyl-3,5-dimethyl-1H-pyrazol-4-yl)methyl]3-methyl-5,7-dioxo-2,3,5,7,11,11a-hexahydro[1,3]oxazolo[3,2-a]pyrido[1,2-d]pyrazine-8-carboxamide] fall in the same range of EC50: 10 to 30 nM for the first, 10 to 30 nM for the second.

First: C[C@H]1CO[C@@H]2Cn3cc(C(=O)NCc4nnc5n4CCCC5)c(=O)c(O)c3C(=O)N12 [Compound 1.1.61, (3S,11aR)-6-hydroxy-3-methyl-N-(5,6,7,8-tetrahydro[1,2,4]triazolo[4,3-a]pyridin-3-ylmethyl)-5,7-dioxo-2,3,5,7,11,11a-hexahydro[1,3]oxazolo[3,2-a]pyrido[1,2-d]pyrazine-8-carboxamide]
Second: C[C@H]1CO[C@@H]2Cn3cc(C(=O)NCc4nncn4C)c(=O)c(O)c3C(=O)N12 [Compound 1.1.14, (3S,11aR)-6-hydroxy-3-methyl-N-[(4-methyl-4H-1,2,4-triazol-3-yl)methyl]-5,7-dioxo-2,3,5,7,11,11a-hexahydro[1,3]oxazolo[3,2-a]pyrido[1,2-d]pyrazine-8-carboxamide]
The EC50 of the first is higher: > 30 nM for the first, ~10 nM for the second.

`Cc1nnsc1CNC(=O)c1cn2c(c(O)c1=O)C(=O)N1[C@@H](C)CO[C@@H]1C2` [Compound 1.1.11, (3S,11aR)-6-hydroxy-3-methyl-N-[(4-methyl-1,2,3-thiadiazol-5-yl)methyl]-5,7-dioxo-2,3,5,7,11,11a-hexahydro[1,3]oxazolo[3,2-a]pyrido[1,2-d]pyrazine-8-carboxamide] and `C[C@H]1CO[C@@H]2Cn3cc(C(=O)NCc4cn5ncsc5n4)c(=O)c(O)c3C(=O)N12` [Compound 1.1.29, (3S,11aR)-6-hydroxy-N-(imidazo[2,1-b][1,3,4]thiadiazol-6-ylmethyl)-3-methyl-5,7-dioxo-2,3,5,7,11,11a-hexahydro[1,3]oxazolo[3,2-a]pyrido[1,2-d]pyrazine-8-carboxamide] cannot be ordered by EC50: > 30 nM for the first, > 30 nM for the second.

First: C[C@H]1CO[C@@H]2Cn3cc(C(=O)NCc4cc5ccccc5o4)c(=O)c(O)c3C(=O)N12 [Compound 1.1.32, (3S,11aR)-N-(1-benzofuran-2-ylmethyl)-6-hydroxy-3-methyl-5,7-dioxo-2,3,5,7,11,11a-hexahydro[1,3]oxazolo[3,2-a]pyrido[1,2-d]pyrazine-8-carboxamide]
Second: C[C@H]1CO[C@@H]2Cn3cc(C(=O)NCc4nc5ccccc5n4C)c(=O)c(O)c3C(=O)N12 [Compound 1.1.42, (3S,11aR)-6-hydroxy-3-methyl-N-[(1-methyl-benzimidazol-2-yl)methyl]-5,7-dioxo-2,3,5,7,11,11a-hexahydro[1,3]oxazolo[3,2-a]pyrido[1,2-d]pyrazine-8-carboxamide]
The EC50 of the first is lower: 2 to 10 nM for the first, > 30 nM for the second.

`CC(C)n1c(CNC(=O)c2cn3c(c(O)c2=O)C(=O)N2[C@@H](C)CO[C@@H]2C3)nc2ccc(Cl)cc21` [Compound 1.1.45, (3S,11aR)-6-hydroxy-3-methyl-N-[(6-chloro-1-isopropyl-1H-benzimidazol-2-yl)methyl]-5,7-dioxo-2,3,5,7,11,11a-hexahydro[1,3]oxazolo[3,2-a]pyrido[1,2-d]pyrazine-8-carboxamide] and `C[C@H]1CO[C@@H]2Cn3cc(C(=O)NCc4nc5cc(Cl)ccc5o4)c(=O)c(O)c3C(=O)N12` [Compound 1.1.38, (3S,11aR)-6-hydroxy-3-methyl-N-[(5-chloro-1,3-benzoxazol-2-yl)methyl]-5,7-dioxo-2,3,5,7,11,11a-hexahydro[1,3]oxazolo[3,2-a]pyrido[1,2-d]pyrazine-8-carboxamide] cannot be ordered by EC50: > 30 nM for the first, > 30 nM for the second.

Compared with `C[C@H]1CO[C@@H]2Cn3cc(C(=O)NCc4ccc5sccc5c4)c(=O)c(O)c3C(=O)N12` [Compound 1.1.31, (3S,11aR)-N-(1-benzothien-5-ylmethyl)-6-hydroxy-3-methyl-5,7-dioxo-2,3,5,7,11,11a-hexahydro[1,3]oxazolo[3,2-a]pyrido[1,2-d]pyrazine-8-carboxamide], `C[C@H]1CO[C@@H]2Cn3cc(C(=O)NCc4ccc5c(ccn5C)c4)c(=O)c(O)c3C(=O)N12` [Compound 1.1.33, (3S,11aR)-6-hydroxy-3-methyl-N-[(1-methyl-1H-indol-5-yl)methyl]-5,7-dioxo-2,3,5,7,11,11a-hexahydro[1,3]oxazolo[3,2-a]pyrido[1,2-d]pyrazine-8-carboxamide] is higher in EC50: 2 to 10 nM for the first, 10 to 30 nM for the second. The first is the more potent here.

With `Cc1nc2cc(CNC(=O)c3cn4c(c(O)c3=O)C(=O)N3[C@@H](C)CO[C@@H]3C4)ccc2n1C` [Compound 1.1.64, (3S,11aR)-6-hydroxy-3-methyl-N-[(1,2-dimethyl-1H-benzimidazol-5-yl)methyl]-5,7-dioxo-2,3,5,7,11,11a-hexahydro[1,3]oxazolo[3,2-a]pyrido[1,2-d]pyrazine-8-carboxamide] the EC50 was > 30 nM.
